Where “and” joins values, the source holds several entries; their conditions need not be identical. Equal values may be shown once. Read-outs that look alike come from different tables or passages of the source.
Assays:
HepG2 cell line = assay: 3H-nucleoside uptake inhibition by BAs in HepG2 cell line; format: cell-based; settings: BA 100 μM; for % Inhibition of Ado uptake, HepG2 cell line, Sodium buffer / % Inhibition of Ado uptake, HepG2 cell line, Sodium-free buffer: 3H-Ado 0.02 μM; for extent of inhibition of guanosine transport, HepG2 cells: 3H-guanosine 0.02 μM, Na+-free
Excerpt: In the presence of multiple substrates with similar affinities, the abundant substrate molecules can compete for binding to the transport sites, reducing the transport of the limiting substrate molecules ([31]). […] We tested the possibility of BA-mediated nucleoside transport inhibition using a HeLa cell line (expressing ENTs (ENT1, ENT2) ([32])) and a HepG2 cell line (expressing both ENTs (ENT1, ENT2) and CNTs (CNT1, CNT2) ([33])) to conduct Ado uptake inhibition assays in Na^+-containing (where both ENTs and CNTs are capable of transport) and Na^+-free (only ENTs are capable of transport) buffers (Fig. 3 and Table 1).
The bars represent the mean ± SD (n = 3). A representative experiment from 3 to 5 independent experiments is presented. Statistical analysis was performed using one-way ANOVA with Dunnett’s multiple comparisons test; ∗p < 0.032, ∗∗p < 0.0021, ∗∗∗p < 0.0002.
HeLa (CCL-2) and HepG2 (HB_8065) were procured from ATCC. Both cell lines were cultured in Eagle's minimum essential medium and Dulbecco's modified Eagle's medium, respectively, supplemented with 10% fetal bovine serum and penicillin-streptomycin (1X). After cells were tested free for mycoplasma contamination, they were plated in 24-well plates, and transport assays were conducted when the cells were 80% confluent. The cells were briefly rinsed with PBS, and then the uptake of radiolabeled substrates was measured after a 5 min incubation in sodium containing (130 mM NaCl, 20 mM Tris–HCl, 3 mM K2HPO4, 1 mM MgCl2.6H2O, 2 mM CaCl2, 5 mM glucose, pH 7.4) or sodium-free (130 mM N-methyl-D-glucamin, 20 mM Tris–HCl, 3 mM K2HPO4, 1 mM MgCl2.6H2O, 2 mM CaCl2, 5 mM glucose, pH 7.4) transport buffers at 37 °C. Uptake was terminated by washing the cells three times with ice-cold arrest buffer containing 20 mM uridine. The cells were shaken for 30 min in 10% SDS for complete dissolution, after which the radioactivity was quantified with a Beckman liquid scintillation counter. The data are presented as the mean ± SD (n = 3).

ENT1 = target: T1, ENT1 (Homo sapiens, UniProt Q99808); assay: Inhibition of 3H-nucleoside influx by BAs in ENT1-expressing Xenopus oocytes; format: cell-based; settings: 3H-Ado 20 μM, sodium-free buffer; for ENT1 % uptake inhibition (Ado): BA 100 μM
T1 construct: The complete ORF of ENT1 (amplified using forward primer); expressed in transfected cells; host or cells: Xenopus laevis oocytes injected with in vitro-transcribed capped mRNA from pOX-hENT1
T1 sequence (Q99808 1-456): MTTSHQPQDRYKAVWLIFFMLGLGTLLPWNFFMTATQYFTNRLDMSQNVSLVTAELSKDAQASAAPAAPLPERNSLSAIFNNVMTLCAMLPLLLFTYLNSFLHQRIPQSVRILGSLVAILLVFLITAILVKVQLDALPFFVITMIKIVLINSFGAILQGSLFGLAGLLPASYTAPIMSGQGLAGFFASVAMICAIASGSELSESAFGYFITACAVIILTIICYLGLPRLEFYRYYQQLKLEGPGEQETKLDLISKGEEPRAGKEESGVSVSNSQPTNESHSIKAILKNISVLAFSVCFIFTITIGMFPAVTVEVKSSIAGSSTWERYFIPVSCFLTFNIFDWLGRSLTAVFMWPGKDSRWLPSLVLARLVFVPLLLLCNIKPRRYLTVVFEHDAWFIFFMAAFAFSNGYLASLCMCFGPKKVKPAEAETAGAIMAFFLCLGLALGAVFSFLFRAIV
Excerpt: We expressed individual ENTs (ENT1, ENT2, and ENT3) in X. laevis oocytes (as described above) and analyzed the Ado influx from each of the ENTs in the presence of different BAs to better understand whether the inhibition profiles differ across human ENTs. […] We also conducted an analysis of the concentration-dependent inhibition of Ado transport to estimate the IC50 values of the BAs (Fig. 4, D–F and Table 2).
Inhibition of Ado influx in H2O- and ENT-injected oocytes by treatment with different BAs at 100 μM. D–F, concentration-dependent inhibition of Ado influx in ENT-injected oocytes by different BAs. The bars represent the mean ± SD (n = 8–12 oocytes). A representative experiment from 3 to 5 independent experiments is presented. Statistical analysis was performed using one-way ANOVA with Dunnett’s multiple comparisons test; ∗p < 0.032, ∗∗p < 0.0021, ∗∗∗∗p < 0.0001.
The generated pOX expression constructs were linearized with either the Not1 or Sac1 restriction enzymes. The digested products were purified via phenol‒chloroform extraction. The mRNAs were synthesized using mMESSAGE mMACHINE (Ambion) transcription kits according to the manufacturer’s instructions. The mRNAs were purified via lithium precipitation. Oocytes were procured from Ecocyte. Prior to experiments, procured oocytes were defolliculated by treating with collagenase A-OR II solution followed by washing with Barth’s solution. Following microscopic verification, selected oocytes were incubated to recover overnight at 25 °C in a shaker incubator. Fifty nanoliters (400–800 ng/μl) of equal amounts of mRNAs were injected into defolliculated oocytes the next day. Expression of plasmids was analyzed after RNA isolation from oocyte extracts and conducting qPCR analysis with gene-specific primers as described earlier ([30]). The injected oocytes were incubated at 15 °C for 24 h before transport assays were performed. […] Uptake was terminated by washing the oocytes three times with arrest buffer containing 20 mM uridine. Individual oocytes were shaken overnight in 10% SDS for complete dissolution, and then the radioactivity was quantified with a Beckman liquid scintillation counter. The data are presented as the mean ± SD (n = 8–12 oocytes). A representative experiment from 3 to 5 independent experiments is presented.

[1] = read-out: ENT1 IC50 (Ado uptake)

SMILES	% Inhibition of Ado uptake, HepG2 cell line, Sodium buffer (HepG2 cell line)	% Inhibition of Ado uptake, HepG2 cell line, Sodium-free buffer (HepG2 cell line) [%]	extent of inhibition of guanosine transport, HepG2 cells (HepG2 cell line) [%]	IC50 (ENT1; [1]) [µM]	ENT1 % uptake inhibition (Ado) (ENT1)	IC50 (ENT1; ENT1 IC50 (Ado uptake)) [µM]
C[C@H](CCC(=O)O)[C@H]1CC[C@H]2[C@@H]3[C@H](O)C[C@@H]4C[C@H](O)CC[C@]4(C)[C@H]3C[C@H](O)[C@]12C [CA, cholic acid]	n.s.	59.86 ± 0.19	12	42.1 ± 8.7	45.48%	
C[C@H](CCC(=O)O)[C@H]1CC[C@H]2[C@@H]3CC[C@@H]4C[C@H](O)CC[C@]4(C)[C@H]3C[C@H](O)[C@]12C [DCA, deoxycholic acid]	n.s.	49.36 ± 0.02	12	56.4 ± 14.9	69% and 71.01%	
C[C@H](CCC(=O)NCCS(=O)(=O)O)[C@H]1CC[C@H]2[C@@H]3[C@H](O)C[C@@H]4C[C@H](O)CC[C@]4(C)[C@H]3C[C@H](O)[C@]12C [TCA, taurocholic acid]	n.s.	62.36 ± 0.03	17.5		80.39%	52.9 ± 14.6
